In US5646184A, “Preparation for external application to the skin and novel benzoic acid derivatives” (Kao Corporation, priority 1993, dated 1997):

The compounds below were run on skin tissue containing sebaceous glands (sebum synthesis) (assay: Percent sebum synthesis inhibition in cultured hamster auricle skin tissue containing sebaceous glands (radioactive sodium acetate incorporation into lipids; method of Hall et al.)). Settings: Mesocricetus auratus; concentration 8 μM; 3 hours culture; average of 6 animals.
Format: cell-based
Method: The following test was conducted to evaluate the sebum synthesis inhibitory action of the benzoic acid derivatives according to the present invention.
Measurement of sebum synthesis was made in accordance with the method of Hall, et al. (cf. Arch. Dermatol. Res., 275:1-7 (1983)). The skin tissue (diameter: 4 mm) containing sebaceous glands, taken from the auricle of a male hamster, was cultured in a Krebes-Ringer's phosphate-buffered solution containing radioactive sodium acetate for 3 hours. The tissue was hydrolyzed and extracted with hexane. The amount of the radioactive labelled lipids in the hexane fraction was measured with a liquid scintillation counter to obtain the amount of the synthesized sebum. The skin tissue obtained from the left auricle of a hamster was tested using a Krebes-Ringer's phosphate-buffered solution, while that obtained from the right one of the same hamster was tested using a Krebes-Ringer's phosphate-buffered solution containing each of the compounds shown in Tables 1 and 2, and a percent synthesis inhibition was obtained according to the following numerical formula.
Percent sebum synthesis inhibition (%) =
100 - (amount of sebum synthesized in the presence of
a test compound)/(amount of sebum synthesized in the
absence of a test compound) × 100
Compound `CC(CCOc1ccc(O)c(C(=O)O)c1)CC(C)(C)C` (centres unmarked) [Compound 23, 2-hydroxy-5-(3,5,5-trimethylhexyloxy)benzoic acid] has an inhibition at 8 µM of 83%. Compound `O=C(O)c1cc(OCCC2CCCCC2)ccc1O` [Compound 24, 5-(2-cyclohexylethoxy)-2-hydroxybenzoic acid] has an inhibition at 8 µM of 78%. `CCCCCCCCOc1ccc(C(=O)O)c(O)c1` [Compound 20, 2-hydroxy-4-n-octyloxybenzoic acid] was tested, and the inhibition at 8 µM was 26%. Work on `CCCCCCOc1ccc(O)c(C(=O)O)c1` [Compound 25, 5-n-hexyloxy-2-hydroxybenzoic acid] yielded an inhibition at 8 µM of 80%. In the case of `CCCCC(CC)COc1ccc(C(=O)NCCO)c(O)c1` (centres unmarked) [Compound 27, N-(2-Hydroxyethyl)-4-(2-ethylhexyloxy)-2-hydroxybenzamide], the inhibition at 8 µM is reported as 15%. Compound `CCCCCCOc1ccc(C(=O)O)c(O)c1` [Compound 19, 4-n-hexyloxy-2-hydroxybenzoic acid] has an inhibition at 8 µM of 58%. With `CCCCC(CC)COc1ccc(O)c(C(=O)O)c1` (centres unmarked) [Compound 22, 5-(2-ethylhexyloxy)-2-hydroxybenzoic acid] the inhibition at 8 µM was 84%. `CC(=O)Oc1cc(OCC2CCCCC2)ccc1C(=O)O` [Compound 29, 2-acetoxy-4-cyclohexylmethoxybenzoic acid] was tested, and the inhibition at 8 µM was 48%. Work on `CCCCCCCCCCOc1ccc(C(=O)O)c(O)c1` [Compound 21, 4-n-decyloxy-2-hydroxybenzoic acid] yielded an inhibition at 8 µM of 13%.

Same assay, conditions: Mesocricetus auratus; concentration 10 μM; 3 hours culture; average of 6 animals
Work on `CC(C)=CCC/C(C)=C/COc1ccc(C(=O)O)c(O)c1` [Compound 39, 4-{(2E)-3,7-dimethylocta-2,6-dienyloxy}-2-hydroxybenzoic acid] yielded an inhibition at 10 µM of 52%. `CC(C)=CCC/C(C)=C/COc1ccc(O)c(C(=O)O)c1` [Compound 40, 5-{(2E)-3,7-dimethylocta-2,6-dienyloxy}-2-hydroxybenzoic acid] was tested, and the inhibition at 10 µM was 72%. `O=C(O)c1ccc(OCC2CCCCC2)cc1O` [Compound 16, 4-cyclohexylmethoxy-2-hydroxybenzoic acid] showed an inhibition at 10 µM of 44%. With `CC(C)=CCC/C(C)=C/COc1ccc(C(=O)NCCO)c(O)c1` [Compound 46, N-(2-hydroxyethyl)-4-{(2E)-3,7-dimethylocta-2,6-dienyloxy}-2-hydroxybenzamide] the inhibition at 10 µM was 28%. `CC(C)=CCCC(C)CCOc1ccc(C(=O)O)c(O)c1` (centres unmarked) [Compound 18, 4-(3,7-dimethyl-6-octenyloxy)-2-hydroxybenzoic acid] gave an inhibition at 10 µM of 45%. With `O=C(O)c1ccc(OCCC2CCCCC2)cc1O` [Compound 17, 4-(2-cyclohexylethoxy)-2-hydroxybenzoic acid] the inhibition at 10 µM was 57%. `CCCCC(CC)COc1ccc(C(=O)O)c(O)c1` (centres unmarked) [Compound 14, 4-(2-ethylhexyloxy)-2-hydroxybenzoic acid] showed an inhibition at 10 µM of 60%. `CC(CCOc1ccc(C(=O)O)c(O)c1)CC(C)(C)C` (centres unmarked) [Compound 15, 2-hydroxy-4-(3,5,5-trimethylhexyloxy)benzoic acid] gave an inhibition at 10 µM of 66%.

Same assay, conditions: Mesocricetus auratus; concentration 100 μM; 3 hours culture; average of 6 animals
`CC(C)=CCC/C(C)=C/COc1ccc(C(=O)O)c(O)c1` [Compound 39, 4-{(2E)-3,7-dimethylocta-2,6-dienyloxy}-2-hydroxybenzoic acid] was tested, and the inhibition at 100 µM was 93%. `CC(C)=CCC/C(C)=C/COc1cc(O)cc(C(=O)O)c1` [Compound 42, 3-{(2E)-3,7-dimethylocta-2,6-dienyloxy}-5-hydroxybenzoic acid] showed an inhibition at 100 µM of 70%. Work on `CC(C)=CCC/C(C)=C/CC/C(C)=C/COc1ccc(C(=O)O)c(O)c1` [Compound 43, 2-hydroxy-4-{(2E,6E)-3,7,11-trimethyl-2,6,10-dodecatrienyloxy}benzoic acid] yielded an inhibition at 100 µM of 47%. `CC(=O)Oc1cc(OC/C=C(\C)CCC=C(C)C)ccc1C(=O)O` [Compound 45, 2-acetoxy-4-{(2E)-3,7-dimethylocta-2,6-dienyloxy}benzoic acid] was tested, and the inhibition at 100 µM was 47%. `CCCCC(CC)COc1ccc(C(=O)OC)c(O)c1` (centres unmarked) [Compound 1, methyl 4-(2-ethylhexyloxy)-2-hydroxybenzoate] was tested, and the inhibition at 100 µM was 32%. Compound `CC(C)=CCC/C(C)=C/COc1cccc(C(=O)O)c1O` [Compound 41, 3-{(2E)-3,7-dimethylocta-2,6-dienyloxy}-2-hydroxybenzoic acid] has an inhibition at 100 µM of 91%.
